Measured values published in US20250360142A1, “NOVEL ATP-SENSITIVE POTASSIUM CHANNEL POTENTIATORS, THEIR PREPARATION AND USE” (RHYTHM PHARMACEUTICALS, INC., priority 2022, published 2025).

Each molecule was assayed on INS-1E cells (assay: Glucose stimulated insulin secretion assay (GSIS) in INS-1E cells). Details: INS-1E cell line, average inhibition.
Format: cell-based, rat
Description: (§1) INS-1E, rat pancreatic tumor (insulinoma) cells were used in the GSIS assay. INS-1E cells were thawed and incubated in culture medium (CM) (RPMI 1640+Glucose q.s., HEPES 25 mM, Na-Pyruvat 1 mM, 2-Mercaptoethanol 50 μM, Fetal Calf Serum; heat inactivated (FCS) 10%, Penicillin/Streptomycin 100 U/ml) at 37° C.; 5% CO2 in a humidified atmosphere. 96 welled plates are coated with Matrigel by incubating the plates with 1 ml pre-diluted 1:10 with cold basal medium with 100 μl/well at 37° C. for 1 hour. Matrigel is then removed and replaced with 100 μl CM. Cells are then seeded into the wells as 70 000 cells/well. CM is refreshed with 200 μl fresh CM on the third day. CM is refreshed again with 200 μl fresh CM on the sixth day. GSIS assay is performed on the seventh day and cells in wells are washed with PKrebs®BSA and incubated with 100 μL/well for 2 h. Secretion plates are placed in an incubator at 37° C., 5% C02 and saturated humidity for 60 min. Meanwhile, lysis solution is prepared by adding 1 tablet of protease inhibitor/10 mL TETG solution and kept at 4° C. until the end of the experiment. The other incubation buffers are prepared without adding pharmacological compounds, aliquoted and then placed in a water bath at 37° C. The samples are prepared including negative (βKrebs®B0=0 mM Glucose) and positive controls (PKrebs®B20=20 mM Glucose) and each compound to be tested is diluted in DMSO as having a series of final concentration including 10.00, 4.00, 1.60, 0.64, 0.26, 0.10, 0.04, 0.02 μM.
(§2) After 2 hours of starvation, glucose stimulation and treatments are initiated. KRB Buffer from cells is removed by pipetting. The solutions are homogenized and the cells are treated with 90 µL/well. 10 μl from 10-fold compound dilution is added to the assay plate (final 100 μl/well) according to the following layout for each compound to be tested.
(§3) Incubation time is 40 minutes. Plates are placed in an incubator at 37° C., 5% CO2 and saturated humidity. After incubation, 80 μL of supernatants are collected without disrupting the cell layer and stored at 4° C. or on ice until centrifugation. Remaining medium are removed from each well and 100 μL/well of cold lysis solution is added and incubated for minimum 2 minutes at room temperature. Cell lysis is observed under microscope and waited for maximum for 5 more minutes until the lysis is complete. Cell lysates are collected and all samples including supernatants are centrifuged at 700×g, 5 min at 4° C. 30 μL of each samples are transferred into aliquots for ELISA. ELISA is performed with HTRF Assay Kit comprising an insulin high range kit supplied by Cisbio/Perkin Elmer. 5 μl of each Insulin standard and 5 μl of either supernatant or lysate are transferred on HTRF plate. 40 μl/well of Anti-insulin—XL665 and 20 μl/well of Anti-insulin—EU are added to each well and the plate is read on HTRF compatible reader (fluorescence 620 nm & 665 nm).

| Compound | % inhibition of Insulin (Average Inhibition (%)) |
| --- | --- |
| CC1(C)CC1NC1=NS(=O)(=O)c2cc(F)ccc2N1 (single isomer, unassigned) [Compound 7, (R*)-3-((2,2-dimethylcyclopropyl)amino)-7-fluoro-4H-benzo[e][1,2,4]thiadiazine 1,1-dioxide] | B (B is equal to 25-50% inhibition) |
| O=S1(=O)N=C(NC2CC23CCC3)Nc2ccc(F)cc21 (stereo not shown) [Compound 11, 7-fluoro-3(spiro[2.3]hexan-1-ylamino)-4H-benzo[e][1,2,4]thiadiazine 1,1-dioxide] | B (B is equal to 25-50% inhibition) |
| CC12CC(NC3=NS(=O)(=O)c4cc(F)c(Cl)cc4N3)(C1)C2 [Compound 18, 6-chloro-7-fluoro-3-((3-methylbicyclo[1.1.1]pentan-1-yl)amino)-4H-benzo[e][1,2,4]thiadiazine 1,1-dioxide] | C (C is equal to 10-25% inhibition) |
| O=S1(=O)N=C(NC2CC23CC3)Nc2ccc(F)cc21 (single isomer, unassigned) [Compound 9, (S*)-7-fluoro-3-(spiro[2.2]pentan-1-ylamino)-4H-benzo[e][1,2,4]thiadiazine 1,1-dioxide] | B (B is equal to 25-50% inhibition) |
| CCC1(NC2=NS(=O)(=O)c3cc(F)ccc3N2)CC1 [Compound 12, 3-((1-ethylcyclopropyl)amino)-7-fluoro-4H-benzo[e][1,2,4]thiadiazine 1,1-dioxide] | C (C is equal to 10-25% inhibition) |

Same assay, conditions: Rattus norvegicus, INS-1E cell line

| IC50 [nM] | Compound |
| --- | --- |
| 500 to 1000 | O=S1(=O)N=C(NC2CC23CCC3)Nc2ccc(F)cc21 (stereo not shown) [Compound 11, 7-fluoro-3(spiro[2.3]hexan-1-ylamino)-4H-benzo[e][1,2,4]thiadiazine 1,1-dioxide] |

Same assay, conditions: Rattus norvegicus, INS-1E cells, 10 μM

| Compound | inhibition at 10 µM [%] |
| --- | --- |
| CC1(NC2=NS(=O)(=O)c3cc(F)ccc3N2)CC1 [Compound 46] | ≥ 50 |
| O=S1(=O)N=C(NC2CCOC2)Nc2ccc(Cl)cc21 (stereo not shown) [Compound 72] | 25 to 50 |
| O=S1(=O)N=C(NC(CF)CF)Nc2ccc(Cl)cc21 [Compound 49] | ≥ 50 |
| CC1(NC2=NS(=O)(=O)c3cc(Cl)ccc3N2)CC1 [Compound 51] | 10 to 25 |
| CC(C)C1(NC2=NS(=O)(=O)c3cc(F)c(Cl)cc3N2)CC1 [Compound 64] | 25 to 50 |
| O=S1(=O)N=C(NC2CCOC2)Nc2ccc(F)cc21 (stereo not shown) [Compound 71] | 10 to 25 |
| O=S1(=O)N=C(NC2(CF)CC2)Nc2cc(Cl)c(F)cc21 [Compound 60] | ≥ 50 |
| COCC1(NC2=NS(=O)(=O)c3cc(F)c(Cl)cc3N2)CCC1 [Compound 69] | ≥ 50 |
| O=S1(=O)N=C(NC2CCOC2)Nc2cc(Cl)c(F)cc21 (stereo not shown) [Compound 73] | ≥ 50 |
| O=S1(=O)N=C(NC(CF)CF)Nc2ccc(F)cc21 [Compound 43] | 10 to 25 |
| CC(C)C1(NC2=NS(=O)(=O)c3cc(F)ccc3N2)CC1 [Compound 63] | ≥ 50 |
| O=S1(=O)N=C(NC23CC(C2)C3)Nc2ccc(Cl)cc21 [Compound 62] | 25 to 50 |
| CC1(NC2=NS(=O)(=O)c3cc(F)c(Cl)cc3N2)CC1 [Compound 58] | ≥ 50 |
| O=S1(=O)N=C(NC2(CF)CC2)Nc2ccc(F)cc21 [Compound 47] | 10 to 25 |
| COCC1(NC2=NS(=O)(=O)c3cc(F)ccc3N2)CCC1 [Compound 65] | 25 to 50 |
| O=S1(=O)N=C(NC2(CF)CC2)Nc2ccc(Cl)cc21 [Compound 52] | 10 to 25 |

These molecules were tested on EndoC-βH1 Cell Line (assay: GSIS assay in EndoC-βH1 cell line). Details: not given.
Format: cell-based
Description: as §1, §2, §3
GSIS experiments were also performed in other cell lines, e.g., EndoC-βH1, a canonical cell line for screening new therapeutic compounds.

| IC50 [nM] | Compound |
| --- | --- |
| ≥ 2000 | O=S1(=O)N=C(NC23CC(F)(C2)C3)Nc2ccc(F)cc21 [Compound 3, 7-fluoro-3-((3-fluorobicyclo[1.1.1]pentan-1-yl)amino)-4H-benzo[e][1,2,4]thiadiazine 1,1-dioxide] |
| 1000 to 2000 | C[C@H]1C[C@@H]1NC1=NS(=O)(=O)c2cc(F)c(Cl)cc2N1 (stereo in doubt) [Compound 26, 6-chloro-7-fluoro-3-(((1S*, 2S*)-2-methylcyclopropyl)amino)-4H-benzo[e][1,2,4]-thiadiazine 1,1-dioxide] |
| 500 to 1000 | O=S1(=O)N=C(NC2CC23CCC3)Nc2cc(Cl)c(F)cc21 (single isomer, unassigned) [Compound 16, (S*)-6-chloro-7-fluoro-3-(spiro[2.3]hexan-1-ylamino)-4H-benzo[e][1,2,4]-thiadiazine 1,1-dioxide] |
